Experiments:
Assay type in all cases: in vivo, mouse
[1] = system: B6.129P2-Fmr1tm1Cgr/J transgenic (TG) mice; test: Light/dark preference test (LDT), anxiety-like behavior
Procedure: • 1. N=6 mice per group. • 2. All behavioral testing included a group of untreated wild type controls. • 3. Dosing for the various groups were as follows: • a. […] Group 2: IP saline, […], administered weekly to animals beginning at 9 weeks of age and continuing for four weeks (i.e. given at Age Weeks 9, 10, 11 and 12). • c. […] Behavioral tests for all groups (Groups 1-5) began the following day after the last day of IN dosing (Weeks 13-14 of age). • 5. Blood samples (PK testing) were collected from all mice at the end of 12 Weeks of age, just prior to starting the behavioral tests in Week 13. • 6. Brain tissue (for biochemistry testing) was harvested from all mice upon sacrifice at the conclusion of all behavioral testing at the end of 13-14 Weeks of age.
(§1) Male B6.129P2-Fmr1tm1Cgr/J TG mice were purchased from Jackson Laboratories, Bar Harbor, Maine. These mice were of approximately 8(+1) weeks of age. Mice were maintained in group cages (6 mice per cage based on treatment group) in a controlled environment (temperature: 21.5±4.5° C./relative humidity: 35-55%) under a standard 12-hour light/12-hour dark lighting cycle (lights on at 06:00). Mice accommodated to the research facility for the remainder of the week. Dosing began on the following Monday. Body weights of all mice were recorded for health monitoring purposes.
Dosing was carried out over the course of 28 days as instructed by the study sponsor. • 1. Prior to the beginning of the light/dark test, a dark box (red transparent enclosure with an opening for the mouse to enter) is placed in the SmartCage™ • 2. An individual mouse is placed in the open/non-dark box side (“Light Zone”), with its head facing away from the dark box. • 3. The mouse is then allowed to freely explore the SmartCage™ and enter the dark box “Dark Zone” at its own discretion over a 10-minute span. • 4. Anxiety-like behavior is assessed based on the SmartCage™ monitoring of time spent in the Light Zone, the number of Light Zone entries, and % Time Spent in the Light Zone. • 5. […]

[2] = system: B6.129P2-Fmr1tm1Cgr/J transgenic (TG) mice; test: Locomotor activity test (SmartCage)
Procedure: (§2) • 1. N=6 mice per group. • 2. All behavioral testing included a group of untreated wild type controls. • 3. Dosing for the various groups were as follows: • a. […] Group 2: IP saline, […], administered weekly to animals beginning at 9 weeks of age and continuing for four weeks (i.e. given at Age Weeks 9, 10, 11 and 12). • c. […] Behavioral tests for all groups (Groups 1-5) began the following day after the last day of IN dosing (Weeks 13-14 of age). • 5. Blood samples (for PK testing) were collected from all mice at the end of Week 12 of age, just prior to starting the behavioral tests in Week 13 of age. • 6. Brain tissue (for biochemistry testing) was harvested from all mice upon sacrifice at the conclusion of all behavioral testing at the end of Week 13-14 of age.
Male B6.129P2-Fmr1tm1Cgr/J TG (TG) mice were purchased from Jackson Laboratories, Bar Harbor, Maine. These mice were of approximately 8(+1) weeks of age. […] Body weights of all mice were recorded for health monitoring purposes.
Dosing was carried out over the course of 28 days as instructed by the study Sponsor. […] Day 1 to Day 2: Locomotor Activity recording is assessed using the SmartCage™ • 2. […]
Each mouse was placed in a clean plastic, transparent home cage within the SmartCage™. […] Active Time, Travel Distance, and Rearing Activity were assessed for each mouse. Data analyzed based on treatment group.

[3] = system: B6.129P2-Fmr1tm1Cgr/J transgenic (TG) mice; test: Step through passive avoidance test, learning and memory
Procedure: as §2, with “type (WT)” for “type”
as §1, with “TG (TG)” for “TG”, “8 (±1)” for “8(+1)”, “12 hour light/12 hour” for “12-hour light/12-hour”
Dosing was carried out over the course of 28 days as instructed by the study Sponsor. The fifth and final behavioral test, the Step Through (ST) Passive Avoidance Test, was performed over two days (days 38 and 39) with the first day as a Training Day and the second day as a Test Day. Passive avoidance is fear-motivated tests classically used to assess short-term or long-term memory on rodents. […] The mouse is then allowed to freely explore the SmartCage™ and enter the dark box “Dark Zone” at its own discretion; dark box entry latency is automatically recorded. • 4. […] The mouse may freely explore the SmartCage™ for 5 minutes, and avoidance of the Dark Box due to contextual-fear association is assessed. • 8. […]

Cc1ccc(C(=O)Nc2ccc(S(=O)(=O)O)c3cc(S(=O)(=O)O)cc(S(=O)(=O)O)c23)cc1NC(=O)c1cccc(NC(=O)Nc2cccc(C(=O)Nc3cc(C(=O)Nc4ccc(S(=O)(=O)O)c5cc(S(=O)(=O)O)cc(S(=O)(=O)O)c45)ccc3C)c2)c1 [suramin, 1,3,5-Naphthalenetrisulfonic acid, 8,8′-[carbonylbis[imino-3,1-phenylenecarbonylimino(4-methyl-3,1-phenylene)carbonylimino]]bis-] was tested. Which “percentage of time spent in the light zone” value ([1]; IN weekly for 4 weeks) did it give?
Its value is “higher percentage of time spent in the Light Zone”.

What about the “total time spent in the light zone” value ([1]; IN weekly for 4 weeks, 10-minute test) of the same compound?
The value was ~6.5 min.

And the “dark zone entry latency” value ([1]; all IN groups (daily, every other day, weekly))?
The value was 60 to 65 s.

What about the active time ([2]; IN daily, weekly and every 2 days, ~24 h recording) of the same compound?
Its active time is “greater activity compared to the WT control group”.

What about the rearing count ([2]; IN every 2 days) of the same compound?
The rearing count was “comparable to the WT control group”.

What about the “dark zone entry latency” value ([3]; Test Day, IP 20 mg/kg weekly) of the same compound?
Its value is “shortest latency”.

What about the “percentage of time spent in the light zone” value ([3]; test day, IN groups) of the same compound?
The value was “greater than 70%”.

And the “total light zone time” value ([3]; test day, IP 20 mg/kg weekly)?
The value was “lower total time”.

Source: patent US20230390226A1 (PaxMedica, Inc., priority 2021, published 2023)
